Results from patent US6319929A, “Suksdorfin analogs, compositions thereof, and methods for making and using thereof” (priority 1998, dated 2001).
Entries after “also recorded” stand apart in the source; their conditions may differ. Read-outs that look alike come from different tables or passages of the source.

Key:
[1] = system: HIV-1 replication in H9 cells; test: Combination study of suksdorfin with AZT, ddI and ddC: HIV-1 replication in acutely infected H9 cells; assay type: cell-based, HIV-1 (IIIB)
Procedure: HIV Growth Inhibition Assay: The T cell line, H9, and the promonocytic cell line, U937, were maintained separately in continuous culture with complete medium (RPMI 1640 and […] fetal calf serum (FCS) at 5% CO2 and 37° C. Cell lines were used in experiments only when in log phase of growth; whereas, uninfected peripheral blood mononuclear cells (PBMCs) were first stimulated with PHA (1 μg/ml) for 3 days. All cell targets were incubated with HIV-1 (IIIB isolate, TCID50 10 ^4 IU/mi, at a multiplicity of infection of 0.1-0.01 IU/cell) for 1 hour at 37° C. and 5% CO2. The cell lines and PBMCs were washed thoroughly to remove unabsorbed virions and resuspended at 4×10^5 cells/ml in complete medium or complete medium with 10% v/v interleukin […] IL-2, respectively. Aliquots ( ml) were placed in wells of 24-well culture plates containing an equal volume of test compound (diluted in the appropriate culture medium). After incubation for 4 days at 37° C., cell density of uninfected cultures was determined by counting cells in a Coulter counter to assess toxicity of the test compound. A p24 antigen ELISA assay was used to determine the level of virus released in the medium of the HIV-infected cultures. The p24 antigen assay uses a HIV-1 anti-p24 specific monoclonal antibody as the capture antibody coated-on 96-well plates. Following a sample incubation period, rabbit serum containing antibodies for HIV-1 p24 is used to tag any p24 "captured" onto the microtiter well surface. […] The cut-off for the p24 ELISA assay is 12. pg/ml. P24 in the culture medium was quantitated against a standard curve containing known amounts of p24. […] Both the EC50 and IC50 values were calculated by plotting drug concentration versus percent inhibition, and then identifying a 50% inhibition value from the graph.
Combination Study: The experimental design is identical to the growth inhibition assay except that various concentrations of AZT, ddI or ddC were also added to cultures of acutely HIV-1 infected H9 cells that either have or have no received different concentrations of suksdorfin. The concentrations of AZT, ddI and ddC were 5 ten-fold dilutions starting at 1 μg/ml. [drawing 104] [drawing 105]

uninfected H9 cells = test: Combination study of suksdorfin with AZT, ddI and ddC: toxicity to uninfected H9 cells; assay type: cell-based; settings: for IC50: Homo sapiens
Procedure: Pharm. Asso. […] Aliquots ( ml) were placed in wells of 24-well culture plates containing an equal volume of test compound (diluted in the appropriate culture medium). After incubation for 4 days at 37° C., cell density of uninfected cultures was determined by counting cells in a Coulter counter to assess toxicity of the test compound. A p24 antigen ELISA assay was used to determine the level of virus released in the medium of the HIV-infected cultures. The p24 antigen assay uses a HIV-1 anti-p24 specific monoclonal antibody as the capture antibody coated-on 96-well plates. Following a sample incubation period, rabbit serum containing antibodies for HIV-1 p24 is used to tag any p24 "captured" onto the microtiter well surface. […] The cut-off for the p24 ELISA assay is 12. pg/ml. P24 in the culture medium was quantitated against a standard curve containing known amounts of p24. The effective (EC50) and inhibitory (IC50) concentrations (for anti-HIV activity and cytotoxicity, respectively) were determined graphically.
Combination Study: The experimental design is identical to the growth inhibition assay except that various concentrations of AZT, ddI or ddC were also added to cultures of acutely HIV-1 infected H9 cells that either have or have no received different concentrations of suksdorfin.

[2] = system: HIV-1 replication in fresh monocytes; test: HIV-1 infection of fresh monocytes obtained by adherence (p24); assay type: cell-based; settings: for inhibition at 0.032 µg/mL / inhibition at 0.16 µg/mL / inhibition at 0.8 µg/mL / inhibition at 4 µg/mL / inhibition at 20 µg/mL: Human immunodeficiency virus 1, Monocyte, read-out: % suppression
Source text: Results (Table 12) from adding Suksdorfin to fresh monocytes infected with HIV-1.
The monocytes which were used for this experiment were obtained by adherence and not by elutriation; therefore, this cell population is not as pure as what was used for the 16 monocyte data above.

Q: Which results are given for `Cc1cn([C@H]2C[C@H](N=[N+]=[N-])[C@@H](CO)O2)c(=O)[nH]c1=O` [AZT, azidothymidine, reference compound]?
A: EC50 ([1]; Human immunodeficiency virus 1, H9): 0.04 µg/mL; IC50 ([1]; Human immunodeficiency virus 1, H9, read-out: IC50 (μM)^b): 0.04 µg/mL; Therapeutic Index ([1]; Table 5, combinations with 4 μg/ml suksdorfin): > 25; Therapeutic Index ([1]; Table 16, combinations with 4 μg/ml suksdorfin): > 25; decrease of EC50 in presence of suksdorfin ([1]; with 4 μg/ml suksdorfin, H9): 400 fold; increase of TI value in presence of suksdorfin ([1]; with 4 μg/ml suksdorfin, H9): 400 fold; IC50 (uninfected H9 cells; H9): > 1 µg/mL; IC50 (uninfected H9 cells; H9, read-out: IC50 (μM)^a): > 1 µg/mL; p24 ([2]; Day 6, 0.008 μg/ml): 42,004 pg/ml; p24 ([2]; Day 6, 0.04 μg/ml): 23,234 pg/ml; p24 ([2]; Day 6, 0.2 μg/ml): 34,360 pg/ml; p24 ([2]; Day 6, 1 μg/ml): 8,705 pg/ml; p24 ([2]; Day 6, 5 μg/ml): 13,542 pg/ml; p24 ([2]; Day 12, 0.008 μg/ml): 70,380 pg/ml; p24 ([2]; Day 12, 0.04 μg/ml): 17,144 pg/ml; p24 ([2]; Day 12, 0.2 μg/ml): 32,778 pg/ml; p24 ([2]; Day 12, 1 μg/ml): 5,354 pg/ml; p24 ([2]; Day 12, 5 μg/ml): 10,170 pg/ml; p24 ([2]; Day 18, 0.008 μg/ml): 75,428 pg/ml; p24 ([2]; Day 18, 0.04 μg/ml): 22,993 pg/ml; p24 ([2]; Day 18, 0.2 μg/ml): 31,759 pg/ml; p24 ([2]; Day 18, 1 μg/ml): 6,830 pg/ml; p24 ([2]; Day 18, 5 μg/ml): 12,330 pg/ml

Q: Which “synergy with AZT, ddI and ddC” value ([1]; H9) does the source give for `CC(=O)O[C@@H]1[C@H](OC(=O)CC(C)C)c2c(ccc3ccc(=O)oc23)OC1(C)C` [Suksdorfin, suksdorfin] here?
A: act synergistically with AZT, ddI and ddC

Q: What about the “synergy with AZT, ddI and ddC” value ([1]; H9, listed as 1) of the same molecule?
A: potentiate the anti-HIV effects of three nucleosides; also recorded: synergistic effect against HIV replication

Q: What about the EC50 ([1]; Human immunodeficiency virus 1, H9, Table 5, combinations with 4 μg/ml suksdorfin, read-out: EC50) of the same molecule?
A: 2.8 µg/mL

Q: And the IC50 ([1]; Human immunodeficiency virus 1, H9, Table 16, concentration which inhibits viral replication by 50%, combinations with 4 μg/ml suksdorfin, read-out: IC50 (μM)^b)?
A: 2.8 µg/mL

Q: What about the EC50 ([1]; Human immunodeficiency virus 1, H9, later value, read-out: EC50 (value after increase)) of the same molecule?
A: 1.5 to 2.8 µg/mL

Q: And the inhibition at 4 µg/mL ([1]; Human immunodeficiency virus 1, 4 μg/ml suksdorfin, H9)?
A: 64%

Q: And the “toxicity to H9 cells” value (uninfected H9 cells; 20 μg/ml)?
A: toxic to H9 cells

Q: And the p24 ([2]; Day 6, 0.032 μg/ml)?
A: 64,614 pg/ml

Q: And the p24 ([2]; Day 6, 0.16 μg/ml)?
A: 70,195 pg/ml

Q: And the p24 ([2]; Day 6, 0.8 μg/ml)?
A: 53,043 pg/ml

Q: And the p24 ([2]; Day 6, 4 μg/ml)?
A: 48,748 pg/ml

Q: What about the p24 ([2]; Day 6, 20 μg/ml) of the same molecule?
A: 16,712 pg/ml

Q: What about the p24 ([2]; Day 12, 0.032 μg/ml) of the same molecule?
A: 173,998 pg/ml

Q: And the p24 ([2]; Day 12, 0.16 μg/ml)?
A: 203,633 pg/ml

Q: What about the p24 ([2]; Day 12, 0.8 μg/ml) of the same molecule?
A: 163,656 pg/ml

Q: What about the p24 ([2]; Day 12, 4 μg/ml) of the same molecule?
A: 89,467 pg/ml

Q: What about the p24 ([2]; Day 12, 20 μg/ml) of the same molecule?
A: 25,567 pg/ml

Q: What about the p24 ([2]; Day 18, 0.032 μg/ml) of the same molecule?
A: 105,882 pg/ml

Q: And the p24 ([2]; Day 18, 0.16 μg/ml)?
A: 125,440 pg/ml

Q: What about the p24 ([2]; Day 18, 0.8 μg/ml) of the same molecule?
A: 130,970 pg/ml

Q: What about the p24 ([2]; Day 18, 4 μg/ml) of the same molecule?
A: 103,834 pg/ml

Q: And the p24 ([2]; Day 18, 20 μg/ml)?
A: 23,506 pg/ml

Q: And the inhibition at 0.032 µg/mL ([2]; 144 h, Day 6, 0.032 μg/ml)?
A: 0%

Q: And the inhibition at 0.16 µg/mL ([2]; 144 h, Day 6, 0.16 μg/ml)?
A: 0%

Q: What about the inhibition at 0.8 µg/mL ([2]; 144 h, Day 6, 0.8 μg/ml) of the same molecule?
A: 0%

Q: What about the inhibition at 4 µg/mL ([2]; 144 h, Day 6, 4 μg/ml) of the same molecule?
A: 18%

Q: What about the inhibition at 20 µg/mL ([2]; 144 h, Day 6, 20 μg/ml) of the same molecule?
A: 72%

Q: And the inhibition at 0.032 µg/mL ([2]; 288 h, Day 12, 0.032 μg/ml)?
A: 0%

Q: And the inhibition at 0.16 µg/mL ([2]; 288 h, Day 12, 0.16 μg/ml)?
A: 0%

Q: And the inhibition at 0.8 µg/mL ([2]; 288 h, Day 12, 0.8 μg/ml)?
A: 40%

Q: What about the inhibition at 4 µg/mL ([2]; 288 h, Day 12, 4 μg/ml) of the same molecule?
A: 67%

Q: And the inhibition at 20 µg/mL ([2]; 288 h, Day 12, 20 μg/ml)?
A: 91%

Q: What about the inhibition at 0.032 µg/mL ([2]; 432 h, Day 18, 0.032 μg/ml) of the same molecule?
A: 0%

Q: And the inhibition at 0.16 µg/mL ([2]; 432 h, Day 18, 0.16 μg/ml)?
A: 0%

Q: What about the inhibition at 0.8 µg/mL ([2]; 432 h, Day 18, 0.8 μg/ml) of the same molecule?
A: 0%

Q: And the inhibition at 4 µg/mL ([2]; 432 h, Day 18, 4 μg/ml)?
A: 0%

Q: And the inhibition at 20 µg/mL ([2]; 432 h, Day 18, 20 μg/ml)?
A: 78%

Q: What about the “suppression of HIV-1 replication in fresh monocytes (in words)” value ([2]; suksdorfin at 20 and 4 μg/ml, AZT positive control) of the same molecule?
A: did suppress HIV-1 replication in fresh monocytes
